The values that follow come from patent publication US10487092B2, “Pyrazolopyridinamines as MKNK1 and MKNK2 inhibitors” (BAYER PHARMA AKTIENGESELLSCHAFT, priority 2014, dated 2019).

As a reminder, the IC50 is the point on the concentration scale where inhibition reaches its midpoint.

The target of one assay is human full-length MKNK1 (Homo sapiens (Human), UniProt Q9BUB5, T344D). Briefly: MKNK1 kinase high ATP assay (TR-FRET). Type of assay: biochemical.
Sequence of human full-length MKNK1 (Q9BUB5 other isoform, or with tags, fused parts or gaps T344D): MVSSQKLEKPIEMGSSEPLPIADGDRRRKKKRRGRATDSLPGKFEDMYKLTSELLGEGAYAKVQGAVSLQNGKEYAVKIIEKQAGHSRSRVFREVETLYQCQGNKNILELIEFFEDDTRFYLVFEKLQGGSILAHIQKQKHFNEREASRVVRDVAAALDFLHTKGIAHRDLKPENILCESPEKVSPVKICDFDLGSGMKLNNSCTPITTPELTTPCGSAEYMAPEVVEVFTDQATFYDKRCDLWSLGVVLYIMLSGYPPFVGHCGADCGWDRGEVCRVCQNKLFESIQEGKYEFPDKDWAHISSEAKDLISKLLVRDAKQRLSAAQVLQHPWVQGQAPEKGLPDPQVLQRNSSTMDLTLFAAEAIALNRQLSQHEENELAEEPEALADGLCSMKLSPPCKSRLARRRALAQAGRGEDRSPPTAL
Conditions: not given
On the procedure:
MKNK1 Kinase High ATP Assay
MKNK1-inhibitory activity at high ATP of compounds of the present invention after their preincubation with MKNK1 was quantified employing the TR-FRET-based MKNK1 high ATP assay as described in the following paragraphs.
A recombinant fusion protein of Glutathione-S-Transferase (GST, N-terminally) and human full-length MKNK1 (amino acids 1-424 and T344D of accession number BAA 19885.1), expressed in insect cells using baculovirus expression system and purified via glutathione sepharose affinity chromatography, was purchased from Carna Biosciences (product no 02-145) and used as enzyme. As substrate for the kinase reaction the biotinylated peptide biotin-Ahx-IKKRKLTRRKSLKG (SEQ ID NO: 1, C-terminus in amide form) was used, which can be purchased e.g. from the company Biosyntan (Berlin-Buch, Germany).
For the assay 50 nL of a 100 fold concentrated solution of the test compound in DMSO was pipetted into a black low volume 384 well microtiter plate (Greiner Bio-One, Frickenhausen, Germany), 2 μL of a solution of MKNK1 in aqueous assay buffer [50 mM HEPES pH 7.5, 5 mM MgCl2, 1.0 mM dithiothreitol, 0.005% (v/v) Nonidet-P40 (Sigma)] was added and the mixture was incubated for 15 min at 22° C. to allow pre-binding of the test compounds to the enzyme before the start of the kinase reaction. Then the kinase reaction was started by the addition of 3 μL of a solution of adenosine-tri-phosphate (ATP, 3.3 mM=>final conc. in the 5 μL assay volume is 2 mM) and substrate (0.1 μM=>final conc. in the 5 μL assay volume is 0.06 μM) in assay buffer and the resulting mixture was incubated for a reaction time of 30 min at 22° C. The concentration of MKNK1 was adjusted depending of the activity of the enzyme lot and was chosen appropriate to have the assay in the linear range, typical concentrations were in the range of 0.003 μg/mL. The reaction was stopped by the addition of 5 μL of a solution of TR-FRET detection reagents (5 nM streptavidine-XL665 [Cisbio Bioassays, Codolet, France] and 1 nM anti-ribosomal protein S6 (pSer236)-antibody from Invitrogen [#44921G] and 1 nM LANCE EU-W1024 labeled ProteinG [Perkin-Elmer, product no. AD0071]) in an aqueous EDTA-solution (100 mM EDTA, 0.1% (w/v) bovine serum albumin in 50 mM HEPES pH 7.5).
The resulting mixture was incubated for 1 h at 22° C. to allow the formation of complex between the phosphorylated biotinylated peptide and the detection reagents. Subsequently the amount of phosphorylated substrate was evaluated by measurement of the resonance energy transfer from the Eu-chelate to the streptavidine-XL. Therefore, the fluorescence emissions at 620 nm and 665 nm after excitation at 350 nm were measured in a TR-FRET reader, e.g. a Rubystar (BMG Labtechnologies, Offenburg, Germany) or a Viewlux (Perkin-Elmer). The ratio of the emissions at 665 nm and at […] was taken as the measure for the amount of phosphorylated substrate. The data were normalised (enzyme reaction without inhibitor=0% inhibition, all other assay components but no enzyme=100% inhibition).
Molecule `O=C1CCN(C(=O)[C@H]2CCc3c(sc4ncnc(Nc5ccn6nccc6c5)c34)C2)CC1` [Example 33, 1-{[(7S)-4-(Pyrazolo[1,5-a]pyridin-5-ylamino)-5,6,7,8-tetrahydro[1]benzothieno[2,3-d]pyrimidin-7-yl]carbonyl}piperidin-4-one] registered an IC50 of 0.096 µM.

Still in this assay, the particulars now being: high ATP (2 mM), 15 min preincubation with enzyme; read-out: MKNK1 IC50.
Consider `CN(CCNC(=O)OC(C)(C)C)C(=O)[C@H]1CCc2c(sc3ncnc(Nc4ccn5nccc5c4)c23)C1` [Example 25, tert-Butyl [2-(methyl{[(7S)-4-(pyrazolo[1,5-a]pyridin-5-ylamino)-5,6,7,8-tetrahydro[1]benzothieno[2,3-d]pyrimidin-7-yl]carbonyl}amino)ethyl]carbamate], for which the IC50 came out at 0.013 µM.
As to `CN(C)C(=O)CN(C)C(=O)[C@H]1CCc2c(sc3ncnc(Nc4ccn5nccc5c4)c23)C1` [Example 26, (7S)—N-[2-(Dimethylamino)-2-oxoethyl]-N-methyl-4-(pyrazolo[1,5-a]pyridin-5-ylamino)-5,6,7,8-tetrahydro[1]benzothieno[2,3-d]pyrimidine-7-carboxamide], the IC50 amounted to 0.014 µM.
Same read-out and setting: the value for `CN(C)C1CN(C(=O)[C@H]2CCc3c(sc4ncnc(Nc5ccn6nccc6c5)c34)C2)C1` [Example 28, [3-(Dimethylamino)azetidin-1-yl][(7S)-4-(pyrazolo[1,5-a]pyridin-5-ylamino)-5,6,7,8-tetrahydro[1]benzothieno[2,3-d]pyrimidin-7-yl]methanone] was 0.019 µM; that for `CN1CCN(C(=O)[C@H]2CCc3c(sc4ncnc(Nc5ccn6nccc6c5)c34)C2)CC1` [Example 29, (4-Methylpiperazin-1-yl)[(7S)-4-(pyrazolo[1,5-a]pyridin-5-ylamino)-5,6,7,8-tetrahydro[1]benzothieno[2,3-d]pyrimidin-7-yl]methanone] was 0.02 µM.
Same read-out and setting: the value for `CC1(O)CN(C(=O)[C@H]2CCc3c(sc4ncnc(Nc5ccn6nccc6c5)c34)C2)C1` [Example 30, (3-Hydroxy-3-methylazetidin-1-yl)[(7S)-4-(pyrazolo[1,5-a]pyridin-5-ylamino)-5,6,7,8-tetrahydro[1]benzothieno[2,3-d]pyrimidin-7-yl]methanone] was 0.016 µM.
Same read-out and setting: the value for `CN(C)CCN1CCN(C(=O)[C@H]2CCc3c(sc4ncnc(Nc5ccn6nccc6c5)c34)C2)CC1` [Example 31, {4-[2-(Dimethylamino)ethyl]piperazin-1-yl}[(7S)-4-(pyrazolo[1,5-a]pyridin-5-ylamino)-5,6,7,8-tetrahydro[1]benzothieno[2,3-d]pyrimidin-7-yl]methanone] was 0.026 µM.
Turning to `O=C([C@H]1CCc2c(sc3ncnc(Nc4ccn5nccc5c4)c23)C1)N1CCC(F)(F)C1` [Example 34, (3,3-Difluoropyrrolidin-1-yl)[(7S)-4-(pyrazolo[1,5-a]pyridin-5-ylamino)-5,6,7,8-tetrahydro[1]benzothieno[2,3-d]pyrimidin-7-yl]methanone], the IC50 came out at 0.071 µM.
As for `O=C([C@H]1CCc2c(sc3ncnc(Nc4ccn5nccc5c4)c23)C1)N1CC2(COC2)C1` [Example 35, 2-Oxa-6-azaspiro[3.3]hept-6-yl[(7S)-4-(pyrazolo[1,5-a]pyridin-5-ylamino)-5,6,7,8-tetrahydro[1]benzothieno[2,3-d]pyrimidin-7-yl]methanone], the IC50 stood at 0.075 µM.
With `O=C([C@H]1CCc2c(sc3ncnc(Nc4ccn5nccc5c4)c23)C1)N1C[C@@H]2C[C@H]1CO2` [Example 36, (1S,4S)-2-Oxa-5-azabicyclo[2.2.1]hept-5-yl[(7S)-4-(pyrazolo[1,5-a]pyridin-5-ylamino)-5,6,7,8-tetrahydro[1]benzothieno[2,3-d]pyrimidin-7-yl]methanone], the IC50 turned out to be 0.091 µM.
`O=C([C@H]1CCc2c(sc3ncnc(Nc4ccn5nccc5c4)c23)C1)N1C[C@H]2C[C@@H]1CO2` [Example 37, (1R,4R)-2-Oxa-5-azabicyclo[2.2.1]hept-5-yl[(7S)-4-(pyrazolo[1,5-a]pyridin-5-ylamino)-5,6,7,8-tetrahydro[1]benzothieno[2,3-d]pyrimidin-7-yl]methanone]: the IC50 amounted to 0.056 µM.
Still for that read-out and setting: next, `CN1C[C@@H]2C[C@H]1CN2C(=O)[C@H]1CCc2c(sc3ncnc(Nc4ccn5nccc5c4)c23)C1` [Example 38, [(1S,4S)-5-Methyl-2,5-diazabicyclo[2.2.1]hept-2-yl][(7S)-4-(pyrazolo[1,5-a]pyridin-5-ylamino)-5,6,7,8-tetrahydro[1]benzothieno[2,3-d]pyrimidin-7-yl]methanone]: 0.025 µM.
Consider `CN(C)CCN(C)C1CCN(C(=O)[C@H]2CCc3c(sc4ncnc(Nc5ccn6nccc6c5)c34)C2)CC1` [Example 40, (4-{[2-(Dimethylamino)ethyl](methyl)amino}piperidin-1-yl)[(7S)-4-(pyrazolo[1,5-a]pyridin-5-ylamino)-5,6,7,8-tetrahydro[1]benzothieno[2,3-d]pyrimidin-7-yl]methanone], for which the IC50 is 0.006 µM.
Still for that read-out and setting: next, `CN1C[C@H]2C[C@@H]1CN2C(=O)[C@H]1CCc2c(sc3ncnc(Nc4ccn5nccc5c4)c23)C1` [Example 42, [(1R,4R)-5-Methyl-2,5-diazabicyclo[2.2.1]hept-2-yl][(7S)-4-(pyrazolo[1,5-a]pyridin-5-ylamino)-5,6,7,8-tetrahydro[1]benzothieno[2,3-d]pyrimidin-7-yl]methanone]: 0.011 µM.
On the same count and under the same terms, the value for `O=C(NCCC(F)(F)F)[C@H]1CCc2c(sc3ncnc(Nc4cc5ccnn5cc4Cl)c23)C1` [Example 43, (7S)-4-[(6-Chloropyrazolo[1,5-a]pyridin-5-yl)amino]-N-(3,3,3-trifluoropropyl)-5,6,7,8-tetrahydro[1]benzothieno[2,3-d]pyrimidine-7-carboxamide] was 0.035 µM; that for `CC(C)NC(=O)[C@H]1CCc2c(sc3ncnc(Nc4cc5ccnn5cc4Cl)c23)C1` [Example 44, (7S)-4-[(6-Chloropyrazolo[1,5-a]pyridin-5-yl)amino]-N-(propan-2-yl)-5,6,7,8-tetrahydro[1]benzothieno[2,3-d]pyrimidine-7-carboxamide] was 0.054 µM.
In the case of `CN(C)C(=O)[C@H]1CCc2c(sc3ncnc(Nc4cc5ccnn5cc4Cl)c23)C1` [Example 45, (7S)-4-[(6-Chloropyrazolo[1,5-a]pyridin-5-yl)amino]-N,N-dimethyl-5,6,7,8-tetrahydro[1]benzothieno[2,3-d]pyrimidine-7-carboxamide], the IC50 was determined as 0.012 µM.
In the case of `CCN(C)C(=O)[C@H]1CCc2c(sc3ncnc(Nc4cc5ccnn5cc4Cl)c23)C1` [Example 46, (7S)-4-[(6-Chloropyrazolo[1,5-a]pyridin-5-yl)amino]-N-ethyl-N-methyl-5,6,7,8-tetrahydro[1]benzothieno[2,3-d]pyrimidine-7-carboxamide], the 50% inhibitory concentration (IC50) was determined as 0.011 µM.
Take `CN(CC(F)F)C(=O)[C@H]1CCc2c(sc3ncnc(Nc4cc5ccnn5cc4Cl)c23)C1` [Example 47, (7S)-4-[(6-Chloropyrazolo[1,5-a]pyridin-5-yl)amino]-N-(2,2-difluoroethyl)-N-methyl-5,6,7,8-tetrahydro[1]benzothieno[2,3-d]pyrimidine-7-carboxamide]: the half-inhibitory concentration (IC50) was determined as 0.018 µM.
On to `CN(CCC(F)(F)F)C(=O)[C@H]1CCc2c(sc3ncnc(Nc4cc5ccnn5cc4Cl)c23)C1` [Example 48, (7S)-4-[(6-Chloropyrazolo[1,5-a]pyridin-5-yl)amino]-N-methyl-N-(3,3,3-trifluoropropyl)-5,6,7,8-tetrahydro[1]benzothieno[2,3-d]pyrimidine-7-carboxamide], for which the IC50 came to 0.035 µM.
